Measured values as given in US9492496B2, “Aminothiazoles and their uses” (Novartis AG, priority 2007, dated 2016).

What follows are compounds tested on prokaryotic transcription-translation (E. coli S30 extract) (assay: In vitro assay for inhibition of prokaryotic transcription-translation (Promega E. coli S30 Extract System, pBESTluc luciferase readout)). Details: 2 uM compound, 2 h at 37° C., luciferase luminescence.
Type: biochemical
Procedure: In vitro assay for inhibition of prokaryotic transcription-translation [as described in the following references: 1. Zubay, G. (1973) In vitro synthesis of protein in microbial systems. Annu. Rev. Genet. 7, 267.87. 2. Zubay, G. (1980) The isolation and properties of CAP, the catabolite gene activator. Meth. Enzymol. 65, 856.77]. Antibiotic and compound dilutions: stock solutions of compound to be assayed at 2 μM are 80 μM in 40% DMSO. Stock solutions of compounds to be assayed at 10 μM are 400 μM in 40% DMSO.
Assay setup and protocol for Promega E. coli S30 Extract System
The assay is performed as follows: pipet 3.5 μl of 286 ng/μl template DNA (pBESTluc™) into assay wells. Negative control wells receive sdH2O only. Transfer 0.5 μl of 40× compound stock solution to assay wells. Positive control wells (no compound) receive 0.5 μl 40% DMSO sdH2O. Pipet 16 μl of master mix into assay wells. Incubate plate for two hours at 37° C. Rapidly chill the assay plate on ice for five minutes to stop the reaction. Add an equal volume (20 μl) of room temperature Steady-Glo® Luciferase assay reagent to all assay wells. Incubate 20 minutes and read light emitted with luminometer. Results are reported as % inhibition a 2 μM or 10 μM.

Row | Structure (SMILES) | % inh. @ 2 uM
1 | CNC(=O)C[C@@H]1NC(=O)c2csc(n2)-c2ccc(-c3nc(N(CCCCC(=O)O)C(=O)OCc4ccc(C(=O)O)cn4)cs3)nc2-c2csc(n2)-c2csc(n2)[C@H]([C@@H](O)c2ccccc2)NC(=O)CNC(=O)c2nc(sc2COC)C(C(C)C)NC(=O)c2nc1sc2C (stereo partly shown) [Compound 13] | 2 uM = 74.9%
2 | CNC(=O)C[C@@H]1NC(=O)c2csc(n2)-c2ccc(-c3nc(N(CCCCCCC(=O)O)C(=O)O[C@H]4CC[C@H](C(=O)O)CC4)cs3)nc2-c2csc(n2)-c2csc(n2)[C@H]([C@@H](O)c2ccccc2)NC(=O)CNC(=O)c2nc(sc2COC)C(C(C)C)NC(=O)c2nc1sc2C (stereo partly shown) [Compound 5] | 2 uM = 78.5%
3 | CNC(=O)C[C@@H]1NC(=O)c2csc(n2)-c2ccc(-c3nc(NC(=O)CC[C@@H](CC(=O)O)C(=O)O)cs3)nc2-c2csc(n2)-c2csc(n2)[C@H]([C@@H](O)c2ccccc2)NC(=O)CNC(=O)c2nc(sc2COC)C(C(C)C)NC(=O)c2nc1sc2C (stereo partly shown) [Compound 2] | 2 uM = 72.8%
4 | CNC(=O)C[C@@H]1NC(=O)c2csc(n2)-c2ccc(-c3nc(N(CCCC(=O)O)C(=O)O[C@H]4CC[C@H](C(=O)O)CC4)cs3)nc2-c2csc(n2)-c2csc(n2)[C@H]([C@@H](O)c2ccccc2)NC(=O)CNC(=O)c2nc(sc2COC)C(C(C)C)NC(=O)c2nc1sc2C (stereo partly shown) [Compound 4] | 2 uM = 85.3%
5 | CNC(=O)C[C@@H]1NC(=O)c2csc(n2)-c2ccc(-c3nc(NC(=O)N(CCCC(=O)O)[C@H]4CC[C@H](C(=O)O)CC4)cs3)nc2-c2csc(n2)-c2csc(n2)[C@H]([C@@H](O)c2ccccc2)NC(=O)CNC(=O)c2nc(sc2COC)C(C(C)C)NC(=O)c2nc1sc2C (stereo partly shown) [Compound 23] | 2 uM = 79.8%
6 | CNC(=O)C[C@@H]1NC(=O)c2csc(n2)-c2ccc(-c3nc(NC(=O)N(CCCC(=O)O)CCCC(=O)O)cs3)nc2-c2csc(n2)-c2csc(n2)[C@H]([C@@H](O)c2ccccc2)NC(=O)CNC(=O)c2nc(sc2COC)C(C(C)C)NC(=O)c2nc1sc2C (stereo partly shown) [Compound 22] | 2 uM = 79.8%
7 | CNC(=O)C[C@@H]1NC(=O)c2csc(n2)-c2ccc(-c3nc(N(CCCCC(=O)O)C(=O)OC(CCCCC(=O)O)CCC(=O)O)cs3)nc2-c2csc(n2)-c2csc(n2)[C@H]([C@@H](O)c2ccccc2)NC(=O)CNC(=O)c2nc(sc2COC)C(C(C)C)NC(=O)c2nc1sc2C (stereo partly shown) [Compound 26] | 2 uM = 68.2%
8 | CNC(=O)C[C@@H]1NC(=O)c2csc(n2)-c2ccc(-c3nc(NC(=O)CC[C@H](CC(=O)O)C(=O)O)cs3)nc2-c2csc(n2)-c2csc(n2)[C@H]([C@@H](O)c2ccccc2)NC(=O)CNC(=O)c2nc(sc2COC)C(C(C)C)NC(=O)c2nc1sc2C (stereo partly shown) [Compound 1] | 2 uM = 65.4%
9 | CNC(=O)C[C@@H]1NC(=O)c2csc(n2)-c2ccc(-c3nc(N(CCCCC(=O)O)C(=O)[C@H]4CC[C@H](C(=O)O)CC4)cs3)nc2-c2csc(n2)-c2csc(n2)[C@H]([C@@H](O)c2ccccc2)NC(=O)CNC(=O)c2nc(sc2COC)C(C(C)C)NC(=O)c2nc1sc2C (stereo partly shown) [Compound 16] | 2 uM = 64.3%
10 | CNC(=O)C[C@@H]1NC(=O)c2csc(n2)-c2ccc(-c3nc(N(CCCC(CCCCCCC(=O)O)C(=O)O)C(=O)O[C@H]4CC[C@H](C(=O)O)CC4)cs3)nc2-c2csc(n2)-c2csc(n2)[C@H]([C@@H](O)c2ccccc2)NC(=O)CNC(=O)c2nc(sc2COC)C(C(C)C)NC(=O)c2nc1sc2C (stereo partly shown) [Compound 31] | 2 uM = 79.4%
11 | CNC(=O)C[C@@H]1NC(=O)c2csc(n2)-c2ccc(-c3nc(N(CCCCC(CCC(=O)O)C(=O)O)C(=O)O[C@H]4CC[C@H](C(=O)O)CC4)cs3)nc2-c2csc(n2)-c2csc(n2)[C@H]([C@@H](O)c2ccccc2)NC(=O)CNC(=O)c2nc(sc2COC)C(C(C)C)NC(=O)c2nc1sc2C (stereo partly shown) [Compound 28] | 2 uM = 77.0%
12 | CNC(=O)C[C@@H]1NC(=O)c2csc(n2)-c2ccc(-c3nc(N(CCCCC(=O)O)C(=O)N4CCC(C(=O)O)CC4)cs3)nc2-c2csc(n2)-c2csc(n2)[C@H]([C@@H](O)c2ccccc2)NC(=O)CNC(=O)c2nc(sc2COC)C(C(C)C)NC(=O)c2nc1sc2C (stereo partly shown) [Compound 21] | 2 uM = 37.4%
13 | CNC(=O)C[C@@H]1NC(=O)c2csc(n2)-c2ccc(-c3nc(N(CCCCC(=O)O)C(=O)C[C@H]4CC[C@H](C(=O)O)CC4)cs3)nc2-c2csc(n2)-c2csc(n2)[C@H]([C@@H](O)c2ccccc2)NC(=O)CNC(=O)c2nc(sc2COC)C(C(C)C)NC(=O)c2nc1sc2C (stereo partly shown) [Compound 17] | 2 uM = 63.9%
14 | CNC(=O)C[C@@H]1NC(=O)c2csc(n2)-c2ccc(-c3nc(N(CCCCC(=O)O)C(=O)O[C@H]4CC[C@@](CCCCC(=O)O)(C(=O)O)CC4)cs3)nc2-c2csc(n2)-c2csc(n2)[C@H]([C@@H](O)c2ccccc2)NC(=O)CNC(=O)c2nc(sc2COC)C(C(C)C)NC(=O)c2nc1sc2C (stereo partly shown) [Compound 33] | 2 uM = 46.8%
15 | CNC(=O)C[C@@H]1NC(=O)c2csc(n2)-c2ccc(-c3nc(N(CCCCC(=O)O)C(=O)O[C@H]4CC[C@H](C(=O)O)CC4)cs3)nc2-c2csc(n2)-c2csc(n2)[C@H]([C@@H](O)c2ccccc2)NC(=O)CNC(=O)c2nc(sc2COC)C(C(C)C)NC(=O)c2nc1sc2C (stereo partly shown) [Compound 6] | 2 uM = 86.8%
16 | CNC(=O)C[C@@H]1NC(=O)c2csc(n2)-c2ccc(-c3nc(N(CCCC(=O)O)C(=O)CCCCCC(=O)O)cs3)nc2-c2csc(n2)-c2csc(n2)[C@H]([C@@H](O)c2ccccc2)NC(=O)CNC(=O)c2nc(sc2COC)C(C(C)C)NC(=O)c2nc1sc2C (stereo partly shown) [Compound 12] | 2 uM = 82.4%
17 | CNC(=O)C[C@@H]1NC(=O)c2csc(n2)-c2ccc(-c3nc(N(CCCC(=O)O)C(=O)CCCCC(=O)O)cs3)nc2-c2csc(n2)-c2csc(n2)[C@H]([C@@H](O)c2ccccc2)NC(=O)CNC(=O)c2nc(sc2COC)C(C(C)C)NC(=O)c2nc1sc2C (stereo partly shown) [Compound 8] | 2 uM = 59.7%
18 | CNC(=O)C[C@@H]1NC(=O)c2csc(n2)-c2ccc(-c3nc(N(CCCC(=O)O)C(=O)C[C@H]4CC[C@H](C(=O)O)CC4)cs3)nc2-c2csc(n2)-c2csc(n2)[C@H]([C@@H](O)c2ccccc2)NC(=O)CNC(=O)c2nc(sc2COC)C(C(C)C)NC(=O)c2nc1sc2C (stereo partly shown) [Compound 15] | 2 uM = 64.5%
19 | CNC(=O)C[C@@H]1NC(=O)c2csc(n2)-c2ccc(-c3nc(N(CCCCC(=O)O)C(=O)N[C@H]4CC[C@H](C(=O)O)CC4)cs3)nc2-c2csc(n2)-c2csc(n2)[C@H]([C@@H](O)c2ccccc2)NC(=O)CNC(=O)c2nc(sc2COC)C(C(C)C)NC(=O)c2nc1sc2C (stereo partly shown) [Compound 18] | 2 uM = 52.7%
20 | CNC(=O)C[C@@H]1NC(=O)c2csc(n2)-c2ccc(-c3nc(NC(=O)N4C[C@H](CCC(=O)O)C[C@H](CCC(=O)O)C4)cs3)nc2-c2csc(n2)-c2csc(n2)[C@H]([C@@H](O)c2ccccc2)NC(=O)CNC(=O)c2nc(sc2COC)C(C(C)C)NC(=O)c2nc1sc2C (stereo partly shown) [Compound 11] | 2 uM = 92.3%
21 | CNC(=O)C[C@@H]1NC(=O)c2csc(n2)-c2ccc(-c3nc(N(CCCC(=O)O)C(=O)c4ccc(C(=O)O)cn4)cs3)nc2-c2csc(n2)-c2csc(n2)[C@H]([C@@H](O)c2ccccc2)NC(=O)CNC(=O)c2nc(sc2COC)C(C(C)C)NC(=O)c2nc1sc2C (stereo partly shown) [Compound 14] | 2 uM = 55.5%
22 | CNC(=O)C[C@@H]1NC(=O)c2csc(n2)-c2ccc(-c3nc(N(CCCCC(=O)O)C(=O)O[C@H]4C[C@H](C(=O)O)C4)cs3)nc2-c2csc(n2)-c2csc(n2)[C@H]([C@@H](O)c2ccccc2)NC(=O)CNC(=O)c2nc(sc2COC)C(C(C)C)NC(=O)c2nc1sc2C (stereo partly shown) [Compound 9] | 2 uM = 67.1%
